This passage reports IC50 results from patent publication US20110098288A1, “SULFONAMIDES AS ZAP-70 INHIBITORS” (priority 2008, published 2011).

In assay [1] the target is T1, ZAP-70 (Homo sapiens, UniProt P43403).
T1 construct: endogenous in cells; host or cells: cell lysate
T1 sequence (P43403 1-619): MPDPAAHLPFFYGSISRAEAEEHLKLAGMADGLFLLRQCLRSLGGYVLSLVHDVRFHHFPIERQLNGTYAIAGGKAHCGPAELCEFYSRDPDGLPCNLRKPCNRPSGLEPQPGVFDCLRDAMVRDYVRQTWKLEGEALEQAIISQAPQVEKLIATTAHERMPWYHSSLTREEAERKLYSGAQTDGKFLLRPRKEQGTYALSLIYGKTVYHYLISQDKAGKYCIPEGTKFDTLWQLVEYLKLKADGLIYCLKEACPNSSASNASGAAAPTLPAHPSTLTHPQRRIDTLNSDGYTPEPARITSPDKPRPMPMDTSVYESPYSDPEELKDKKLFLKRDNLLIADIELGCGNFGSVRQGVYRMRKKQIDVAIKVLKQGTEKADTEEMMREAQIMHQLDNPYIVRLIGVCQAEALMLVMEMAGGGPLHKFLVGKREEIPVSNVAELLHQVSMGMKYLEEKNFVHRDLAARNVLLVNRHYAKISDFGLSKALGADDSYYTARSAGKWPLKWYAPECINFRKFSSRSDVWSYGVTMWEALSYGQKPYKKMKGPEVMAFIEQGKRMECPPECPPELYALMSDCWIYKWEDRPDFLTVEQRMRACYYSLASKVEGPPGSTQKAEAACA
Briefly: ZAP-70 kinobeads assay. It is filed as binding. Particulars: competition with immobilized aminopyrido-pyrimidine ligand 24 in cell lysate; ZAP-70 detected by dot blot. In short, it runs like this:
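Cell lysate aliquots incubated with test compounds at various concentrations plus affinity beads carrying immobilized aminopyrido-pyrimidine ligand 24. Bead-captured proteins eluted; ZAP-70 quantified by specific antibody dot blot with infrared detection.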

The subject of assay [2] is Jurkat cells. Briefly: Calcium release assay (Fluo-4 flow cytometry after anti-CD3 stimulation). It is filed as cell-based. The conditions noted are these: Homo sapiens, Jurkat cell line J77, anti-CD3 activation, read-out: IC50 (Calcium ion release in cells). The method, then: Compounds of the present invention were tested in a Calcium release assay as described below.
The development of fluorescent probes makes it possible to measure the concentration of intracellular free Calcium ions in single living cells. Cells are first loaded with a cell-permeable Ca^2+-sensitive dye, then the test compound is added. Finally, cells are activated through the T cell receptor with an anti-CD3 antibody shortly before data acquisition on the flow cytometer. The release of Ca^2+ is measured as a function of time after cell stimulation. This protocol describes the flow cytometry method using the Fluo-3 and Fluo-4 dyes (Minta et al., 1989, J. Biol. Chem. 264(14):8171-8178) to measure the intracellular Ca^2+ concentration in Jurkat cells (see also June et al., 1997, Measurement of intracellular calcium ions by flow cytometry. In: Current Protocols in Cytometry (1997) Unit 9.8.1-9.8.19, John Wiley & Sons, Inc.).
In general, cells should be handled in the shortest time possible to assure their stability. Therefore the preparation of all materials in advance is highly recommended as well as using any incubation or centrifugation time to prepare the next steps (e.g. preparing compound dilution or starting the flow cytometer).
1) Prepare a work plan indicating the number of samples to be analyzed including controls. 2) Cell harvest: Centrifuge 50 to 100 ml of a Jurkat cell culture for 5 minutes at 1100 rpm. Discard the supernatant, pool the resuspended cell pellets in a single 50 ml Falcon tube, and fill up to 50 ml with PBS—CaCl2 (without FCS). Centrifuge again sample again. 3) Resuspend cell pellet with PBS—CaCl2 (without FCS) to achieve a concentration not lower than 10×10^6 cells/ml. Prepare an adequate dilution to evaluate the cell concentration and count the cells. 4) Separate the volume of cells needed to be loaded (for example […] for 20 samples) in a 50 ml Falcon tube. Fill up with PBS—CaCl2 to 900 μl for 107 cells. 5) Prepare in the dark a 1:1 mix of FLUO-4 (1 mM)+Pluronic F-127 (20%). 5 μl of Fluo-4 are needed per 107 cells. 6) Prepare a 1/10 dilution of this mix with PBS—CaCl2 (in the dark; for example 5 μl Fluo-4+5 μl F-127 completed to 100 μl). 7) Add the dye solution to the cells. […] 8) Incubate the sample for 30 minutes in a cell incubator (37° C., 5% CO2). Mix from time to time. 9) During this time prepare the adequate test compound dilution in PBS—CaCl2 (with 10% FCS). The solution should be 10 times more concentrated than the desired final concentration. Vortex each dilution. Prepare also the antibody dilutions: anti-CD3 (1/200) and GAM (1/25). 10) Label FACS tubes and distribute in the corresponding tube 30 μl of the compound dilution or only buffer for the control tubes. 11) After 30 minutes of incubation wash the cells twice in PBS—CaCl2 (with 10% FCS). During the washing steps make sure that the flow cytometer is already “ON” in order to warm the laser. 12) Resuspend the cell pellet in PBS—CaCl2 (with 10% FCS) at a concentration of 1.5×10^6 cells/ml. 13) Distribute 300 μl of cell suspension into the FACS tubes and mix gently. The compound incubation is starting. Keep samples at room temperature in the dark. 14) Open the settings of the cytometer. It is advised to have a template ready which is used for all measurements. Settings of the machine should also be the same from one experiment to the other which permits to evaluate the reproducibility of the cell preparation. 15) In Setup modus control your cell preparation on the cytometer. Cells should fit in the pre-defined gates. 16) During the compound incubation time, check also that cells are responding to the anti-CD3 activation as expected. Set a timer at 8 sec. Add 6 μl of anti-CD3 dilution (0.2 μg/ml final) and mix gently. Add 1 μl of GAM dilution (0.75 μg/ml final) and mix gently. Incubate the samples in water bath at 37° C. while starting timer. After 8 seconds of incubation, acquire data at medium speed for 200 seconds. […]

Where a name gives a salt, the structure may show the parent alone.

One may read the IC50 as the concentration at which inhibition is half-maximal. For `CN1CCN(CCCOc2ccc(Nc3ncc(Cl)c(Nc4ccccc4NS(C)(=O)=O)n3)cc2)CC1` [Example 136, N-(2-(5-chloro-2-(4-(3-(4-methylpiperazin-1-yl)propoxy)phenylamino)pyrimidin-4-ylamino)phenyl)methanesulfonamide], the half-inhibitory concentration (IC50) in assay [1] and in assay [2] was less than 100 nM throughout.
As for `COc1cc(Nc2ncc(F)c(Nc3cccc(C)c3NS(C)(=O)=O)n2)cc(OC)c1OC` [Example 116, N-(2-(5-fluoro-2-(3,4,5-trimethoxyphenylamino)pyrimidin-4-ylamino)-6-methylphenyl)methanesulfonamide], the IC50 in assay [1] and in assay [2] was 100 to 1000 nM in each case.
In the case of `COc1cc(Nc2ncc(Cl)c(Nc3ccc4c(c3NS(C)(=O)=O)OCCO4)n2)cc(OC)c1OC` [Example 164, N-(6-(5-chloro-2-(3,4,5-trimethoxyphenylamino)pyrimidin-4-ylamino)-2,3-dihydrobenzo[b][1,4]dioxin-5-yl)methanesulfonamide], the IC50 in assay [1] and in assay [2] was less than 100 nM in each case.
For the compound `CC(=O)c1cccc(Nc2ncc(F)c(Nc3ccccc3NS(C)(=O)=O)n2)c1` [Example 14, N-(2-(2-(3-acetylphenylamino)-5-fluoropyrimidin-4-ylamino)phenyl)methanesulfonamide], the IC50 in assay [1] and in assay [2] was 100 to 1000 nM in each case.
Take `COc1cc(Nc2ncc(F)c(Nc3ccccc3NS(C)(=O)=O)n2)cc(OC)c1OC` [Example 1, N-(2-(5-fluoro-2-(3,4,5-trimethoxyphenylamino)pyrimidin-4-ylamino)phenyl)methanesulfonamide]: the concentration for half-maximal inhibition (IC50) in assay [1] and in assay [2] was 100 to 1000 nM throughout.
`CN1CCN(C)C(COc2cccc(Nc3ncc(Cl)c(Nc4ccccc4NS(C)(=O)=O)n3)c2)C1` (centres unmarked) [Example 147, N-(2-(5-chloro-2-(3-((1,4-dimethylpiperazin-2-yl)methoxy)phenylamino)pyrimidin-4-ylamino)phenyl)methanesulfonamide]: the IC50 in assay [1] and in assay [2] was less than 100 nM each time.
In the case of `COc1cc(Nc2ncc(F)c(Nc3ccccc3NS(=O)(=O)c3cccs3)n2)cc(OC)c1OC` [Example 50, N-(2-(5-fluoro-2-(3,4,5-trimethoxyphenylamino)pyrimidin-4-ylamino)phenyl)thiopehene-2-sulfonamide], the values for the half-maximal inhibitory concentration (IC50) in assay [1] and in assay [2] were 1000 to 10000 nM and 100 to 1000 nM, respectively.
The corresponding values for `COc1ccc(Nc2ncc(Br)c(Nc3ccccc3NS(C)(=O)=O)n2)cc1` [Example 106, N-(2-(5-bromo-2-(4-methoxyphenylamino)pyrimidin-4-ylamino)phenyl)methanesulfonamide] are 100 to 1000 nM and 100 to 1000 nM.
For `CCNC(=O)COc1cccc(Nc2ncc(Cl)c(Nc3ccccc3NS(C)(=O)=O)n2)c1` [Example 151, 2-(3-(5-chloro-4-(2-(methylsulfonamido)phenylamino)pyrimidin-2-ylamino)phenoxy)-N-ethylacetamide 2,2,2-trifluoroacetate], in that order: less than 100 nM and less than 100 nM.
For the compound `CS(=O)(=O)Nc1ccccc1Nc1nc(Nc2cccc(O)c2)ncc1F` [Example 76, N-(2-(5-fluoro-2-(3-hydroxyphenylamino)pyrimidin-4-ylamino)phenyl)methanesulfonamide], the IC50 in assay [1] and in assay [2] was 100 to 1000 nM in each case.
As to `CS(=O)(=O)Nc1ccccc1Nc1nc(Nc2ccc3c(c2)OCCO3)ncc1F` [Example 4, N-(2-(2-(2,3-dihydrobenzo[b][1,4]dioxin-6-ylamino)-5-fluoropyrimidin-4-ylamino)phenyl)methanesulfonamide], the half-maximal inhibitory concentration (IC50) in assay [1] was in the range of 1000 to 10000 nM; in assay [2], 100 to 1000 nM.
For `CCOc1ccc(Nc2nc(Nc3cc(OC)c(OC)c(OC)c3)ncc2F)c(NS(C)(=O)=O)c1` [Example 175, N-(5-ethoxy-2-(5-fluoro-2-(3,4,5-trimethoxyphenylamino)pyrimidin-4-ylamino)phenyl)methanesulfonamide], in that order: less than 100 nM and less than 100 nM.
`Cc1cc(C)cc(Nc2ncc(C)c(Nc3ccccc3NS(C)(=O)=O)n2)c1` [Example 67, N-(2-(2-(3,5-dimethylphenylamino)-5-methylpyrimidin-4-ylamino)phenyl)methanesulfonamide]: the concentration for half-maximal inhibition (IC50) in assay [1] and in assay [2] was 100 to 1000 nM each time.
As to `CN1CCCC(COc2cccc(Nc3ncc(F)c(Nc4ccccc4NS(C)(=O)=O)n3)c2)C1` (centres unmarked) [Example 98, N-(2-(5-fluoro-2-(3-((1-methylpiperidin-3-yl)methoxy)phenylamino)pyrimidin-4-ylamino)phenyl)methanesulfonamide], the IC50 in assay [1] is less than 100 nM; in assay [2], 100 to 1000 nM.
Regarding `COc1cc(Nc2ncc(F)c(Nc3cccc(C(C)C)c3NS(C)(=O)=O)n2)cc(OC)c1OC` [Example 161, N-(2-(5-fluoro-2-(3,4,5-trimethoxyphenylamino)pyrimidin-4-ylamino)-6-isopropylphenyl)methanesulfonamide], the half-maximal inhibitory concentration (IC50) in assay [1] and in assay [2] was 100 to 1000 nM each time.
Take `COc1cccc(Nc2ncc(F)c(Nc3ccccc3NS(C)(=O)=O)n2)c1` [Example 38, N-(2-(5-fluoro-2-(3-methoxyphenylamino)pyrimidin-4-ylamino)phenyl)methanesulfonamide]: the results for the IC50 in assay [1] and in assay [2] were 1000 to 10000 nM and 100 to 1000 nM, respectively.
For `COc1cc(Nc2ncc(Cl)c(Nc3ccccc3NS(C)(=O)=O)n2)cc(OC)c1OC` [Example 138, N-(2-(5-chloro-2-(3,4,5-trimethoxyphenylamino)pyrimidin-4-ylamino)phenyl)methanesulfonamide hydrochloride], in that order: less than 100 nM and less than 100 nM.
Consider `COc1cccc(Nc2nc(Nc3cc(OC)c(OC)c(OC)c3)ncc2F)c1NS(C)(=O)=O` [Example 172, N-(2-(5-fluoro-2-(3,4,5-trimethoxyphenylamino)pyrimidin-4-ylamino)-6-methoxyphenyl)methanesulfonamide], for which the half-maximal inhibitory concentration (IC50) in assay [1] and in assay [2] was 100 to 1000 nM each time.
As to `COc1cc(Nc2ncc(F)c(Nc3ccc(N4CCOCC4)cc3NS(C)(=O)=O)n2)cc(OC)c1OC` [Example 171, N-(2-(5-fluoro-2-(3,4,5-trimethoxyphenylamino)pyrimidin-4-ylamino)-5-morpholinophenyl)methanesulfonamide], the half-maximal inhibitory concentration (IC50) in assay [1] and in assay [2] was 100 to 1000 nM each time.
